Literature values as cited in patent publication US8278066B2, “Truncated somatostatin receptors” (Board of Regents, The University of Texas System, priority 2001, dated 2012).

Target: SSTR2 (Homo sapiens, UniProt P30874)
Conditions: reported by Reisine et al. 1993; Raynor et al. 1993; cited from earlier work

SSTR2, sequence (P30874 whole entry, species assumed): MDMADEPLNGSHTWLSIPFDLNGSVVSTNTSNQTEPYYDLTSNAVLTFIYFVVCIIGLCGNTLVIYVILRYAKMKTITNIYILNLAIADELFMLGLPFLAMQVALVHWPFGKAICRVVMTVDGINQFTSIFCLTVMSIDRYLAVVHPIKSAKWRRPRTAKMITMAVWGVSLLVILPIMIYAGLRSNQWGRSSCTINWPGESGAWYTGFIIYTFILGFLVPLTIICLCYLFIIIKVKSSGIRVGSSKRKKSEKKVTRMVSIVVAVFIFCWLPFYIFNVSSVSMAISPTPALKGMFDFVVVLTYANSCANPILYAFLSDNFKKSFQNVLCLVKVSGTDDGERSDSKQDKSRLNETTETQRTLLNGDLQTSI

C[C@@H](O)[C@@H]1NC(=O)[C@H](CCCCN)NC(=O)[C@@H](Cc2c[nH]c3ccccc23)NC(=O)[C@H](Cc2ccccc2)NC(=O)[C@@H](NC(=O)[C@H](N)Cc2ccccc2)CSSC[C@@H](C(=O)N[C@H](CO)[C@@H](C)O)NC1=O [octreotide]
Receptor saturation: 100 nM
